The subject of data set [1] is TU5 tumoral cells. The experiment in a line: Macrophage cytotoxic activity towards TU5 tumoral cells (peritoneal cells of mice treated i.p., collected seven days later and incubated with tumor target cells). Particulars: peritoneal cells collected 7 days later, 48 h incubation with TU5 tumoral cells, colorimetric at 570 nm. The class given is cell-based, mouse. The method, then: The experimental procedure to evaluate this activity is as follows: groups of 4 mice are treated i.p. with the tested compounds and then, seven days later, peritoneal cells are collected and plated for 2 hours at 37° C. After this period the walls are washed to eliminate the non adherent cells, tumor target cells are then added and the incubation is prolonged for 48 hours. At the end of this period the target cells viability is evaluated by a colorimetric method and quantified at 570 nm.
The following table summarizes the immunostimulating activity data of some compounds of the invention, obtained according to the hereabove experimental procedure, towards TU5 tumoral cells (Eur. J. Immunol. 1982, 12, 320)
Cytotoxic activity is calculated as % inhibition of TU5 tumoral cells growth using the following formula [formula] where
O.D.A.=optical density from cocultured TU5 and vehicol treated macrophages
O.D.B.=optical density from vehicol treated macrophages alone
O.D.C=optical density from cocultured TU5 and FCE compound treated macrophages
O.D.D=optical density from FCE compound treated macrophages alone.

Data set [2] is described as follows: Approximate acute toxicity (LD50) in the mouse, per os. Particulars: in vivo, po, single administration of increasing doses, measured on seventh day after the day of treatment. The method, then:
For example, the approximate acute toxicity (LD50) in the mouse of the compound 4-hydroxy-N-(2-pyridyl)-cinnoline-3-carboxamide determined per os with single administration of increasing doses and measured on the seventh day after the day of treatment, is higher than 800 mg/kg. Analogous toxicity data have been found for the other compounds of the invention.

In the case of `CN(C(=O)c1nnc2ccccc2c1O)c1ccccn1` [FCE 25051, 4-hydroxy-N-methyl-N-(2-pyridyl)-cinnoline-3-carboxamide], the “Macrophage cytotoxic activity (% inhibition)” value in data set [1] (50 mg/kg i.p. to mice) was 80%.

`O=C(Nc1ccccn1)c1nnc2ccccc2c1O` [FCE 24089, 4-hydroxy-N-(2-pyridyl)-cinnoline-3-carboxamide]: the LD50 at 168 h in data set [2] is above 800 mg/kg. The “Macrophage cytotoxic activity (% inhibition)” value in data set [1] (10 mg/kg i.p. to mice) is listed as 90%. As for `O=C(Nc1ccccc1)c1nnc2ccccc2c1O` [FCE 25008, 4-hydroxy-N-phenyl-cinnoline-3-carboxamide], the “Macrophage cytotoxic activity (% inhibition)” value in data set [1] (50 mg/kg i.p. to mice) is 71%.

For the origin of these results see patent US4826837A, “Cinnoline-carboxamides and process for their preparation” (Farmitalia Carlo Erba s.r.l., priority 1987, dated 1989).
